pIC50: −log10 of the molar value. Where a SMILES comes first, the peptide text is derived from it. Where no end group is shown, it is not given here.
Key:
[1] = test system: PC9 (Human non-small cell lung cancer cell); assay: MTT cytotoxicity, PC9; type: cell-based; details: PC9, 24 hours incubation
Description: (§1) The MTT assay is a colorimetric method for measuring the activity of enzymes in living cells that reduces Thiazolyl blue tetrazolium bromide (MTT) to formazan dyes showing a purple color. In this embodiment, a colorimetric 3-(4.5-dimethylthiazol-2-yl)-2.5-diphenyltetrazodium bromide (MTT) viability assay was used to assess the in vitro cytotoxicity of oncolytic peptides.
(§2) The half inhibition concentration (IC50) is the concentration required by the oncolytic peptides to reach fifty percent inhibition. In one embodiment, the oncolytic peptides were used for IC50 test via MTT colorimetric assay.
(§3) Human lung cancer lines PC9 and A549 and murine pancreatic cancer cell line Panc02 were cultured in RPMI medium supplemented with 10% fetal bovine serum and antibiotic in this embodiment. Additionally, murine hepatoma cell line Hepa 1-6, murine melanoma cell line B16-F10, murine fibrosarcoma cell line MN-11, murine mammary cancer cell line E0771 and human diploid fibroblast (HFW) were cultured in DMEM medium supplemented with 10% fetal bovine serum and antibiotic. Cells were cultured in a humidified incubator containing 5% CO2 at 37° C.
(§4) All cancer cell lines were seeded in a 96-well plate with a concentration of 5000-8000 cells/100 μl/well and incubated for 24 hrs. After medium was removed, 100 μl fresh medium containing peptide (ranging from 50 μM to 0.8 μM) was added to the wells. Following 24 hours incubation, fresh medium with MTT (0.5 mg/ml) was replaced and incubated for 3 hours. After medium/MTT was removed, DMSO was added at 100 μl for dissolving the formazan crystal. Cell survival rate was calculated by measuring the absorbance at 540 nm using a Multi-labeled Microplate Reader (Sunrise™, TECAN).

[2] = test system: A375 (human malignant melanoma); assay: MTT cytotoxicity, A375; type: cell-based; details: A375, 24 hours incubation
Description: as §1, §2, §4

[3] = test system: A549 (Human non-small cell lung cancer cell); assay: MTT cytotoxicity, A549; type: cell-based; details: A549, 24 hours incubation
Description: as §1, §2, §3, §4

[4] = test system: OECM-1 (Human oral cancer cell); assay: MTT cytotoxicity, OECM-1; type: cell-based; details: OECM-1, 24 hours incubation
Description: as §1, §2, §4

[5] = test system: NCI-N87 (Human gastric carcinoma); assay: MTT cytotoxicity, NCI-N87; type: cell-based; details: NCI-N87, 24 hours incubation
Description: as §1, §2, §4

[6] = test system: Hepa I-6 (Murine hepatocellular carcinoma); assay: MTT cytotoxicity, Hepa 1-6; type: cell-based; details: Hepa I-6, 24 hours incubation
Description: as §1, §2, §3, §4

[7] = test system: HepG2 Cancer Cells (Human hepatocellular carcinoma); assay: MTT cytotoxicity, HepG2; type: cell-based; details: HepG2, 24 hours incubation
Description: as §1, §2, §4

Panc02 = assay: MTT cytotoxicity, Panc02; type: cell-based, murine; details: Panc02, 24 hours incubation
Description: as §1, §2, §3, §4

[8] = test system: MN-11 (Murine fibrosarcoma); assay: MTT cytotoxicity, MN-11; type: cell-based; details: MN-11, 24 hours incubation
Description: as §1, §2, §3, §4

[9] = test system: SAS (Human tongue carcinoma); assay: MTT cytotoxicity, SAS; type: cell-based; details: 24 hours incubation
Description: as §1, §2, §4

[10] = test system: B16-F10 (Murine skin malignant melanoma); assay: MTT cytotoxicity, B16-F10; type: cell-based; details: B16-F10, 24 hours incubation
Description: as §1, §2, §3, §4

RBC (Human blood cell) = assay: Cytotoxicity, RBC; type: cell-based
Description: as §2

[11] = test system: HUVEC (Human Umbilical Vein Endothelial (Cell)); assay: MTT cytotoxicity, HUVEC; type: cell-based; details: 24 hours incubation
Description: as §1, §2, §4

[12] = test system: EO771 (Murine mammary adenocarcinoma); assay: MTT cytotoxicity, EO771; type: cell-based; details: EO771, 24 hours incubation
Description: as §1, §2, §3, §4

HFW (Human fibroblast) = assay: MTT cytotoxicity, HFW; type: cell-based; details: 24 hours incubation
Description: as §1, §2, §3, §4

[13] = test system: HCT-15 (Human colorectal cancer); assay: MTT cytotoxicity, HCT-15; type: cell-based; details: HCT-15, 24 hours incubation
Description: as §1, §2, §4

[14] = test system: C9 (Human oral cancer cell); assay: MTT cytotoxicity, C9; type: cell-based; details: C9, 24 hours incubation
Description: as §1, §2, §4

[15] = Peptide stability in serum; type: in vitro ADME; details: 25% (vol/vol) bovine calf serum
Experimental: Since this kind of peptide is highly toxic, the hope is that the peptide can be decomposed after inducing cancer cells to release danger-associated molecular patterns (DAMPs), and will not stay in the body for too long. After exposure to 25% (vol/vol) bovine calf serum, the residues of peptides were analyzed by liquid chromatography, and the stability at different time points was calculated.

Row | Molecule | pIC50 [1] | pIC50 [2] | pIC50 [3] | pIC50 [4] | pIC50 [5] | pIC50 [6] | pIC50 [7] | pIC50 (Panc02) | pIC50 [8] | pIC50 [9] | pIC50 [10] | pIC50 (RBC (Human blood cell)) | pIC50 [11] | pIC50 [12] | pIC50 (HFW (Human fibroblast)) | pIC50 [13] | pIC50 [14] | also measured
1 | CC(C)C[C@H](NC(=O)[C@H](Cc1ccc2ccccc2c1)NC(=O)[C@H](CCCCN)NC(=O)[C@H](CC(C)C)NC(=O)[C@H](Cc1c[nH]c2ccccc12)NC(=O)[C@H](CCCCN)NC(=O)[C@H](CCCNC(=N)N)NC(=O)[C@H](Cc1c[nH]c2ccccc12)NC(=O)[C@H](CCCCN)NC(=O)[C@H](CCCCN)NC(=O)[C@H](CCCCN)NC(=O)[C@H](CCCCN)NC(=O)[C@H](CCCCN)NC(=O)[C@H](CCCCN)NC(=O)[C@H](CCCCN)NC(=O)[C@@H](N)CCCCN)C(=O)N[C@@H](C)C(=O)N[C@@H](CCCCN)C(=O)N[C@@H](CCCCN)C(N)=O [SEQ ID NO: 2, KKKK-KK-KK-WRK-WLK-Nal-LA-KK-NH2] (HELM PEPTIDE1{K.K.K.K.K.K.K.K.W.R.K.W.L.K.[O=C([C@H](Cc1ccc2ccccc2c1)N[*:1])[*:2]].L.A.K.K.[am]}$$$$V2.0; N-terminus assumed) | 5.36 | 5.25 | 5.20 | 4.81 | 5.07 | 5.07 | 4.96 | 5.14 | 4.87 | 4.80 | 4.86 | 4.35 | 5.04 | 5.00 | 4.96 | 5.18 | 4.80 | –
2 | CC(C)C[C@H](NC(=O)[C@H](Cc1ccc2ccccc2c1)NC(=O)[C@H](CCCCN)NC(=O)[C@H](CC(C)C)NC(=O)[C@H](Cc1c[nH]c2ccccc12)NC(=O)[C@H](CCCCN)NC(=O)[C@H](CCCNC(=N)N)NC(=O)[C@H](Cc1c[nH]c2ccccc12)NC(=O)[C@H](CCCCN)NC(=O)[C@H](CCCCN)NC(=O)[C@H](CCCCN)NC(=O)[C@H](CCCCN)NC(=O)[C@H](CCCCN)NC(=O)[C@@H](N)CCCCN)C(=O)N[C@@H](C)C(=O)N[C@@H](CCCCN)C(N)=O [SEQ ID NO: 3, KKKK-KK-WRK-WLK-Nal-LAK-NH2] (HELM PEPTIDE1{K.K.K.K.K.K.W.R.K.W.L.K.[O=C([C@H](Cc1ccc2ccccc2c1)N[*:1])[*:2]].L.A.K.[am]}$$$$V2.0; N-terminus assumed) | 5.16 | 5.08 | 5.30 | 4.81 | 4.97 | 5.15 | 4.80 | 5.07 | 4.79 | 4.77 | 4.81 | 4.42 | 5.12 | 5.20 | 5.04 | 5.05 | 4.88 | –
3 | CC(C)C[C@H](NC(=O)[C@H](Cc1ccc2ccccc2c1)NC(=O)[C@H](CCCCN)NC(=O)[C@H](CC(C)C)NC(=O)[C@H](Cc1c[nH]c2ccccc12)NC(=O)[C@H](CCCCN)NC(=O)[C@H](CC(C)C)NC(=O)[C@H](Cc1c[nH]c2ccccc12)NC(=O)[C@H](CCCNC(=N)N)NC(=O)[C@H](CCCNC(=N)N)NC(=O)[C@H](CCCCN)NC(=O)[C@H](CCCCN)NC(=O)[C@H](CCCCN)NC(=O)[C@@H](N)CCCCN)C(=O)N[C@@H](CCCCN)C(=O)N[C@@H](CCCCN)C(N)=O [SEQ ID NO: 6, KKKK-RR-WLK-WLK-Nal-LKK-NH2] (HELM PEPTIDE1{K.K.K.K.R.R.W.L.K.W.L.K.[O=C([C@H](Cc1ccc2ccccc2c1)N[*:1])[*:2]].L.K.K.[am]}$$$$V2.0; N-terminus assumed) | 5.47 | 4.97 | 5.15 | 4.78 | 5.03 | 5.07 | 4.85 | 5.06 | 5.25 | 4.81 | 4.98 | 4.45 | 5.16 | 5.00 | 5.14 | 5.10 | 4.90 | –
4 | CC(C)C[C@H](NC(=O)[C@H](Cc1ccc2ccccc2c1)NC(=O)[C@H](CCCCN)NC(=O)[C@H](CC(C)C)NC(=O)[C@H](Cc1c[nH]c2ccccc12)NC(=O)[C@H](CCCCN)NC(=O)[C@H](CCCNC(=N)N)NC(=O)[C@H](Cc1c[nH]c2ccccc12)NC(=O)[C@H](CCCCN)NC(=O)[C@H](CCCCN)NC(=O)[C@H](CCCNC(=N)N)NC(=O)[C@H](CCCNC(=N)N)NC(=O)[C@H](CCCCN)NC(=O)[C@H](CCCCN)NC(=O)[C@H](CCCCN)NC(=O)[C@@H](N)CCCCN)C(=O)N[C@@H](C)C(=O)N[C@@H](CCCCN)C(=O)N[C@@H](CCCCN)C(N)=O [SEQ ID NO: 8, KKKK-RR-KK-WRK-WLK-Nal-LA-KK-NH2] (HELM PEPTIDE1{K.K.K.K.R.R.K.K.W.R.K.W.L.K.[O=C([C@H](Cc1ccc2ccccc2c1)N[*:1])[*:2]].L.A.K.K.[am]}$$$$V2.0; N-terminus assumed) | 5.80 | 5.44 | 5.64 | 5.22 | 5.50 | 5.44 | 5.09 | 5.57 | 5.46 | 5.40 | 5.01 | 4.42 | 5.25 | 5.48 | 5.14 | 5.50 | 5.28 | Serum stability (residual peptide) ([15]; 0 hr): 100.00%; remaining at 0.5 h ([15]; 0.5 hr, read-out: Serum stability (residual peptide)): 105%; remaining at 1 h ([15]; 1 hr, read-out: Serum stability (residual peptide)): 77.4%; remaining at 2 h ([15]; 2 hr, read-out: Serum stability (residual peptide)): 106%; remaining at 4 h ([15]; 4 hr, read-out: Serum stability (residual peptide)): 70.4%; remaining at 6 h ([15]; 6 hr, read-out: Serum stability (residual peptide)): 71.3%; remaining at 8 h ([15]; 8 hr, read-out: Serum stability (residual peptide)): 66.5%
5 | CC(C)C[C@H](NC(=O)[C@H](Cc1ccc2ccccc2c1)NC(=O)[C@H](CCCNC(=N)N)NC(=O)[C@H](CCCNC(=N)N)NC(=O)[C@H](CCCCN)NC(=O)[C@H](CCCCN)NC(=O)[C@H](CCCCN)NC(=O)[C@@H](N)CCCCN)C(=O)N[C@@H](C)C(=O)N[C@@H](CCCCN)C(N)=O [SEQ ID NO: 10, KKKK-RR-Nal-LAK-NH2] (HELM PEPTIDE1{K.K.K.K.R.R.[O=C([C@H](Cc1ccc2ccccc2c1)N[*:1])[*:2]].L.A.K.[am]}$$$$V2.0; N-terminus assumed) | – | – | 4.33 | 4.45 | 4.08 | 4.38 | 4.07 | 4.12 | 4.03 | 4.01 | 3.87 | – | – | 4.26 | 3.31 | 4.24 | 4.25 | –
6 | KKKKKKKKWRKWLKWLAKK-NH2 [SEQ ID NO: 1, KKKK-KK-KK-WRK-WLK-WLA-KK-NH2] | 5.07 | 4.98 | 5.14 | 4.73 | 4.77 | 4.88 | 4.87 | 4.87 | 4.84 | 4.83 | 4.72 | 4.28 | 5.03 | 4.78 | 4.79 | 4.91 | 4.68 | –
7 | KKKKRRKKWLKWLKWLKKK-NH2 [SEQ ID NO: 4, KKKK-RR-KK-WLK-WLK-WLK-KK-NH2] | 5.10 | 5.00 | 5.05 | 4.74 | 4.82 | 4.98 | 4.83 | 4.80 | 4.88 | 4.73 | 4.79 | 4.23 | 5.33 | 4.86 | 4.69 | 4.97 | 4.78 | –
